From US20070286886A1, “Materials And Methods For Inducing Apoptosis In Adipocytes” (University of Tennessee Research Foundation, priority 2004, published 2007)
Entries after “also recorded” stand apart in the source; their conditions may differ.

Experiments:
Assay type in all cases: cell-based
[1] = tested on: 3T3-L1 and UCP2-transfected 3T3-L1 adipocytes; assay: Mitochondrial calcium (rhod-2 AM fluorescence) in adipocytes
Method: (§1) Rhod-2/AM was used for qualitative measurement of [Ca^2+]m. Cells were incubated with the Ca^2+-sensitive fluorescent indicator rhod-2 AM (1-1.5 μM) for at least 1 h at 37° C. in 5% CO2 in humidified air. Because rhod-2 AM consists of a cationic rhodamine molecule, it accumulates preferentially inside the mitochondria due to their negative membrane potential. After loading, the cells were kept in rhod-2 AM-free standard solution for at least 1 h to allow conversion of the dye to its Ca^2+-sensitive, free acid form. Images of [Ca^2+]m were acquired at the wavelength of 552 nm excitation and 590 nm emission using the intracellular imaging system described above. Because rhod-2 is not a ratiometric dye, its fluorescence intensity was not calibrated to obtain absolute values of [Ca^2+]m. Instead, only relative values were recorded as fluorescence signal (F) relative to the control value (F0). After baseline calcium concentration was measured, the 1α,25-(OH)2-D3 was immediately applied to the cells and the calcium concentration was measured again.
as §1, with “the Ca^2+ sensitive” for “the Ca^2+-sensitive”, “AM (1-1·5 μM),” for “AM (1-1.5 μM)”, “at 370 degrees Celsius” for “at 37° C.”, “air. Since” for “air. Because”, “above. Since” for “above. Because”, “(F0).” for “(F0). After baseline calcium concentration was measured, the 1α,25-(OH)2-D3 was immediately applied to the cells and the calcium concentration was measured again.”

[2] = tested on: 3T3-L1 and UCP2-transfected 3T3-L1 cells; assay: Mitochondrial membrane potential (JC-1 fluorometry) in adipocytes; conditions: for mitochondrial potential: 4 h
Method: (§2) Adipocytes were incubated with adipocyte medium for 4 h with or without 1α,25-(OH)2-D3. Mitochondrial membrane potential was analyzed fluorometrically with a lipophilic cationic dye JC-1 (5,5′,6,6′-tetrachloro-1,1′,3,3′-tetraethylbenzimidazol carbocyanine iodide) using a mitochondrial potential detection kit (Biocarta, San Diego, Calif.). Mitochondrial potential was determined as the ratio of red fluorescence (excitation 550 nm, emission 600 nm) and green fluorescence (excitation 485 nm, emission 535 nm) using a fluorescence microplate reader.
as §2, with “GDP, BK 8644, GDP plus BK8644.” for “1α,25-(OH)2-D3.”

caspase-3 = assay: Caspase-3 mRNA expression by real-time PCR in 3T3-L1 and UCP2-transfected 3T3-L1 adipocytes
Method: 3T3-L1 preadipocytes were incubated at a density of 8000 cells/cm2 (10 cm2 dish) and grown in Dulbecco's modified Eagle's medium (DMEM) containing 10% FBS and antibiotics (adipocyte medium) at 37° C. in 5% CO2 in air. Confluent preadipocytes were induced to differentiate with a standard differentiation medium consisting of DMEM-F10 (1:1, vol/vol) medium supplemented with 1% FBS, 1 μM dexamethasone, IBMX (0.5 mM), and antibiotics (1% penicillin-streptomycin). Preadipocytes were maintained in this differentiation medium for 3 days and subsequently cultured in adipocyte medium. Cultures were re-fed every 2-3 days to allow 90% cells to reach full differentiation before they were chemically treated. Chemicals were freshly diluted in adipocyte medium before treatment. Cells were washed with fresh adipocyte medium, re-fed with medium containing the different treatments, and incubated at 37° C. in 5% CO2 in air before analysis. Cell viability was measured via trypan blue exclusion.
UCP2 full-length cDNAs were amplified by […] using mRNAs isolated from mouse white adipose tissues. The PCR primers for this amplification are shown as follows: UCP2 forward, 5′-[…]-3′, reverse, 5′-[…]-3′. The PCR products were then subcloned into pcDNA4/His expression vectors. The linearized constructs were transfected into 3T3-L1 preadipocytes using lipofectamine plus standard protocol (Invitrogen, Carlsbad, Calif.). After 48 h of transfection, cells were split and cultured in selective medium containing 400 ug/ml zeocin for the selection of resistant colonies. Cells were fed with selective medium every 3 days until resistant colonies could be identified. These resistant foci were picked, expanded, tested for expression, and frozen for future experiments.
A total cellular RNA isolation kit (Ambion, Austin, Tex.) was used to extract total RNA from 3T3-L1 cells according to the manufacturer's instructions.
Adipocyte caspase-1, caspase-3, Bcl-2, and Bax mRNA were quantitatively measured using a Smart Cycler Real Time PCR System (Cepheid, Sunnyvale, Calif.) with a TaqMan 1000 Core Reagent Kit (Applied Biosystems, Branchburg, N.J.). The primers and probe sets were ordered from Applied Biosystems TaqMan Assays-on-Demand Gene Expression primers and probe set collection according to the manufacturer's instructions. Pooled 3T3-L1 adipocyte total RNA was serial-diluted in the range of 1.5625-25 ng and used to establish a standard curve; total RNAs for unknown samples were also diluted in this range. Reactions of quantitative RT-PCR for standards and unknown samples were Cepheid, Sunnyvale, Calif.) and TaqMan Real Time PCR Core Kit. The mRNA quantitation for each sample was further normalized using the corresponding 18 s quantitation, with a forward primer, 5′-[…]-3′, and a reverse primer, 5′-[…]-3′.
3T3-L1 preadipocytes were incubated at a density of 8000 cells/cm2 (10 cm2 dish) and grown in Dulbecco's modified Eagle's medium (DMEM) containing 10% FBS and antibiotics at 37° C. in 5% CO2. Confluent preadipocytes were induced to differentiate with a standard differentiation medium consisting of DMEM-F 10 (1:1, vol/vol) medium supplemented with 1% FBS, 1 μM dexamethasone, IBMX (0.5 mM) and antibiotics (1% penicillin/streptomycin). Preadipocytes were maintained in this differentiation medium for 3 days and subsequently cultured in adipocyte medium. Cultures were re-fed every 2-3 days to allow 90% cells to reach fully differentiation before conducting chemical treatment. Chemicals were freshly diluted in adipocyte medium before treatment. Cells were washed with fresh adipocyte medium, re-fed with medium containing the different treatments, and incubated at 37° C. in 5% CO2 in air before analysis. Cell viability was measured via trypan blue exclusion.
Adipocytes were incubated with adipocyte medium for 24 h with or without GDP, BK 8644, GDP plus BK8644 before total RNA extraction. […]

Row | caspase-3 expression (caspase-3; high dose 100 nM, 24 h, control and UCP2-transfected 3T3-L1 cells, P<0.01) | caspase-3 expression (caspase-3; physiological low doses 0.1 nM, 1 nM, 5 nM, 10 nM, 24 h, control and UCP2-transfected 3T3-L1 cells, P<0.05) | caspase-3 expression (caspase-3; 3T3-L1 cells, Bay K 8644 5-100 nM range of FIG. 15) | SMILES | mitochondrial calcium [Ca2+]m ([1]; high dose (100 nM)) | increase of mitochondrial Ca2+ ([1]; high dose (100 nM), P<0.05) [%] | mitochondrial calcium [Ca2+]m ([1]; low doses (0.1 nM to 10 nM), control and UCP2-transfected cells) | suppression of mitochondrial Ca2+ levels ([1]; physiological doses (0.1-10 nM)) [%] | mitochondrial potential ([2]; high dose (100 nM)) | mitochondrial potential ([2]; lower doses, 3T3-L1 and UCP2 stably transfected 3T3-L1 cells) | mitochondrial Δψ in L1-UCP2 cells ([2]; physiological doses (0.1-10 nM), L1-UCP2 cells) | mitochondrial calcium ([1]; 3T3-L1 cells, p<0.05) | effect on mitochondrial potential ([2]; 3T3-L1 cells, BK8644 alone)
1 | stimulated | inhibited |  | C=C1/C(=C\C=C2/CCC[C@]3(C)[C@@H]([C@H](C)CCCC(C)(C)O)CC[C@@H]23)C[C@@H](O)C[C@@H]1O [1α,25-(OH)2-D3, 1α,25-dihydroxyvitamin D3] | significantly stimulated | 25 | decreased; also recorded: significant decreases | ~50 | collapse | significantly increase | restored |  | 
2 |  |  | dose-dependently | COC(=O)C1=C(C)NC(C)=C([N+](=O)[O-])C1c1ccccc1C(F)(F)F (stereo not drawn) [Bay K 8644] |  |  |  |  |  |  |  | increased | no effect
